Data as given in ChEMBL document CHEMBL1201862, “PubChem BioAssay data set” (2004).
The source made the active and inactive calls.

Key:
Beta-galactosidase = Beta-galactosidase (Escherichia coli, UniProt Q8VNN2); test: PubChem AID 485352; format: functional
[1] = biological target: T1, Type-1 angiotensin II receptor (Homo sapiens, UniProt P30556); test: antagonism of angiotensin II type 1 receptor – cell-based, uHTS hits, selectivity assay for APJ receptor antagonist project, dose response (AID 463214); format: functional;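 further: antagonist potency against angiotensin II stimulated AT1 response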
T1 sequence (P30556 whole entry): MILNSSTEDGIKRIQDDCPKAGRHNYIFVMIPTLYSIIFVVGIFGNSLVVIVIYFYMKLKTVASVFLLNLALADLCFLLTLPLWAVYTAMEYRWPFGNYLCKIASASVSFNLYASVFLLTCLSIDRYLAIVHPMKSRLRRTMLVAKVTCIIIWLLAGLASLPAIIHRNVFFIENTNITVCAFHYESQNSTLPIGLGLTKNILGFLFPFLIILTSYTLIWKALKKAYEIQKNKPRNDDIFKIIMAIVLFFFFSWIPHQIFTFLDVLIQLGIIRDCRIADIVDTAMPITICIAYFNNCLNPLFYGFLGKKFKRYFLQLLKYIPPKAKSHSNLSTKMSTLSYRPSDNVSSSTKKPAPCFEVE

[2] = NIH-3T3 fibroblast cytotoxicity, dose response, cytotoxicity control, cell-based, fluorescence, Alamar Blue, secondary assay (AID 2327); format: functional;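 further: NIH-3T3 mouse fibroblasts cultured with fluconazole at 8 µg/mL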
[3] = luciferase reporter signal suppression in cells – H4 neuroglioma cells, luminescence, dose response (AID 1990); format: functional, cell-based
HEK293 [4] = test: inhibition of NOD1-driven NF-kB reporter – cell-based, luminescence, uHTS, primary screen (AID 1578); format: functional; conditions: Homo sapiens
BJ [5] = test: BJ-TERT fibroblast viability loss – cell-based, RAS-independent, luminescence, dose response (AID 1933); format: functional; conditions: Homo sapiens
Protein Rev = Protein Rev (Human immunodeficiency virus type 1 group M subtype B (isolate WMJ22)(HIV-1), UniProt P05866); test: inhibitors of Rev protein–RRE RNA complex – biochemical, protein-RNA interaction, dose response (AID 842); set-up: species or system Human immunodeficiency virus 1
HEK293 [6] = test: cells; format: functional, cell-based; conditions: Homo sapiens
[7] = Luminescence Cell-Based Dose Response HTS to Identify Inhibitors of 5'UTR Stem-Loop Driven Prion Protein mRNA Translation in H4 Neuroglioblastoma Cells. [Related pubchem assays: 1827 (Project Summary), 1813 (Primary HTS)]; format: functional
[8] = alpha-synuclein stem-loop luciferase translation blockers – H4 neuroglioma cells, luminescence, confirmation (AID 1988); format: functional, cell-based
BJ [9] = test: cells; format: functional, cell-based; conditions: Homo sapiens
[10] = fluconazole-exposed Candida albicans growth modulators – fluorescence, retest, confirmation (AID 2467); format: functional, cell-based
HEK293 [11] = test: cells; format: functional, cell-based; conditions: Homo sapiens; remark: listed apart in the source
[12] = biological target: Nucleotide-binding oligomerization domain-containing protein 2 (Homo sapiens, UniProt Q9HC29); test: inhibition of NOD2-driven NF-kB reporter – cell-based, luminescence, uHTS, HEK293 (AID 1566); format: functional
HEK293 [13] = test: NOD2 signaling inhibitors in MDP-stimulated cells, cell-based, uHTS, luminescence (AID 2001); format: functional; conditions: Homo sapiens
HEK293 [14] = test: cells; format: functional, cell-based; conditions: Homo sapiens; remark: listed apart in the source
[15] = viability of PTEN-deleted HCT116 cells – cell-based, HCT116 PTEN knockout, dose response (AID 1047); format: functional;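 further: HCT116 colon tumor cells with PTEN knocked out; cells exposed to compound for 60 hours before readout; potency for loss of cell viability measured by luminescence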
[16] = biological target: T2, Serine/threonine-protein phosphatase (Candida dubliniensis (strain CD36 / CBS 7987 / NCPF 3949 / NRRLY-17841) (Yeast), UniProt B9W6M3); test: blockers of CaCl2-induced CDRE-lacZ signaling – S. cerevisiae, luminescence, secondary, dose response (AID 2388); format: functional, cell-based;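 further: yeast reporter cells carrying a calcineurin-responsive lacZ construct stimulated with calcium chloride; luminescent beta-galactosidase reporter signal in whole cells rather than isolated phosphatase activity; potency for inhibition where a drop in reporter signal means calcineurin blockade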
T2 sequence (B9W6M3 whole entry): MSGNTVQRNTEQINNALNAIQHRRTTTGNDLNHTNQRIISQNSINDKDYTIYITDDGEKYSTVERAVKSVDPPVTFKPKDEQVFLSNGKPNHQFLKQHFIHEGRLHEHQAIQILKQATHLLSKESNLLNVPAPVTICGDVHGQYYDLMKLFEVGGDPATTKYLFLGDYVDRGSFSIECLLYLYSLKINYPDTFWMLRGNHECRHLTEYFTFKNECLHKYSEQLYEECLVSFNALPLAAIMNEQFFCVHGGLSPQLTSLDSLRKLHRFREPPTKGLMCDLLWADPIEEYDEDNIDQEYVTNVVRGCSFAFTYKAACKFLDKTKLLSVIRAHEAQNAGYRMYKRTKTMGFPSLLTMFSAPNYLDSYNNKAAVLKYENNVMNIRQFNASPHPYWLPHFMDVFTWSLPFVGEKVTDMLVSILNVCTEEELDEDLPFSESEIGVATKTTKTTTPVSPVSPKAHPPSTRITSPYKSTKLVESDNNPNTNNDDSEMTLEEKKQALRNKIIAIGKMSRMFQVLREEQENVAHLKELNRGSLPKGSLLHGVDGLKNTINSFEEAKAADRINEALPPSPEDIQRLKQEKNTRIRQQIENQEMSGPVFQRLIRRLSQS

[17] = viability of HCT116 lacking mutant beta-catenin – cell-based, human colon tumor, dose response (AID 1045); format: functional;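 further: HCT116 colon tumor cells with beta catenin knocked out; cells exposed to compound for 60 hours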
BJ [18] = test: BJ-TERT-LT-ST fibroblast viability loss – cell-based, RAS-independent, luminescence, dose response (AID 1935); format: functional; conditions: Homo sapiens;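 further: BJ fibroblasts immortalized with TERT plus LT and ST oncogenes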
[19] = DRD fibroblast viability loss – cell-based, non-viral oncogenic, luminescence, dose response (AID 1934); format: functional; conditions: Homo sapiens
[20] = THP-1 cell cytotoxicity, dose response, cytotoxicity control for non-replicating M. tuberculosis project (AID 489025); format: functional
[21] = HepG2 cell cytotoxicity, dose response, cytotoxicity control for non-replicating M. tuberculosis project (AID 489018); format: functional; conditions: Mycobacterium tuberculosis
Jurkat = test: blockers of NF-kB activation in T cells – Jurkat, luciferase reporter, luminescence, B- and T-cell, dose response (AID 489004); format: functional, cell-based; conditions: Homo sapiens;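 further: NF-kB luciferase reporter Jurkat cells stimulated with PMA plus ionomycin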
[22] = Vero E6 cell cytotoxicity, dose response, cytotoxicity control for non-replicating M. tuberculosis project, secondary assay (AID 492998); format: functional, VeroE6; conditions: Vero C1008
[23] = HEK-293T viability loss, compound-treated – cell-based, uHTS hits, cytotoxicity control for B/T-cell NF-kB inhibitor project, dose response (AID 489019); format: functional;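 further: IC50 reflects cytotoxicity as loss of cell viability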
cells = format: functional
BJ [24] = test: growth inhibition of engineered Ras-driven BJ cells – cell-based, alamar blue fluorescence, cherrypicked samples, dose response (AID 2631); format: functional; conditions: Homo sapiens;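 further: confirmatory dose-response assay in RAS-dependent BJ fibroblasts engineered with TERT, LT and ST, with cytotoxicity read by fluorescence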
INS1 = test: INS-1E survival protection against cytokine death – cell-based, luminescence, retest, dose response (AID 449756); format: functional; conditions: Rattus norvegicus;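 further: cell death triggered by IL-1 beta plus TNF-alpha plus IFN-gamma mixture; protective hits raise ATP signal compared with cytokine alone wells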
[25] = biological target: ATP-dependent molecular chaperone HSP82 (Candida albicans (strain WO-1) (Yeast), UniProt C4YTQ8); test: steroid-induced GRE reporter decrease in yeast – S. cerevisiae, luminescence, Hsp90 inhibitor project, dose response (AID 2400); format: functional, cell-based;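 further: beta-galactosidase luminescence from glucocorticoid response element reporter as proxy for Hsp90 function; inhibitor potency where signal loss means Hsp90 inhibition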
[26] = blockers of HIV-1 envelope-mediated cell-cell fusion – cherry-pick, dose response (AID 652057); format: functional, cell-based
[27] = viability loss in CEM21 cells – cell-based, CellTiter-Glo luminescence, cherry-picked, cytotoxicity control for viral fusion inhibitor project, dose response (AID 652042); format: functional;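 further: potency for signal decrease meaning cytotoxicity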
[28] = blockers of HIV-1 ZM109 envelope-driven cell-cell fusion – HeLa effector, CEM target cells, luciferase, cherry-pick, dose response (AID 652058); format: functional, cell-based;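 further: luciferase signal from HIV-1 Env mediated cell-cell fusion of effector and target cells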
[29] = HIV-1 AD8 envelope cell-cell fusion blockers – cherry-pick, dose response (AID 652062); format: functional, cell-based;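 further: luciferase signal from cell-cell fusion driven by HIV-1 clade B AD8 Env; potency is for inhibitors of fusion seen as a drop in luminescence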
[30] = Luminescence Cell-Based Dose Retest to Confirm Inhibitors of Cancer Stem Cells. [Related pubchem assays (depositor defined):AID2717, AID2721]; format: functional; conditions: Homo sapiens
HeLa = test: ATP-based viability loss in HeLa cells – cell-based, CellTiter-Glo luminescence, cherry-pick samples, cytotoxicity control for MITF activator project, dose response (AID 540259); format: functional; conditions: Homo sapiens
Escherichia coli = test: microbe, parasite or virus in culture
[31] = biological target: T3, Microphthalmia-associated transcription factor (Homo sapiens, UniProt O75030); test: reducers of TRPM1 reporter luminescence, concentration series – cell-based, SK-MEL-5, cherry-picked, set 3, MITF inhibitor project, dose response (AID 493073); format: functional;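 further: SK-MEL-5 melanoma cells with luciferase driven by the MITF target TRPM1 promoter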
T3 sequence (O75030 whole entry): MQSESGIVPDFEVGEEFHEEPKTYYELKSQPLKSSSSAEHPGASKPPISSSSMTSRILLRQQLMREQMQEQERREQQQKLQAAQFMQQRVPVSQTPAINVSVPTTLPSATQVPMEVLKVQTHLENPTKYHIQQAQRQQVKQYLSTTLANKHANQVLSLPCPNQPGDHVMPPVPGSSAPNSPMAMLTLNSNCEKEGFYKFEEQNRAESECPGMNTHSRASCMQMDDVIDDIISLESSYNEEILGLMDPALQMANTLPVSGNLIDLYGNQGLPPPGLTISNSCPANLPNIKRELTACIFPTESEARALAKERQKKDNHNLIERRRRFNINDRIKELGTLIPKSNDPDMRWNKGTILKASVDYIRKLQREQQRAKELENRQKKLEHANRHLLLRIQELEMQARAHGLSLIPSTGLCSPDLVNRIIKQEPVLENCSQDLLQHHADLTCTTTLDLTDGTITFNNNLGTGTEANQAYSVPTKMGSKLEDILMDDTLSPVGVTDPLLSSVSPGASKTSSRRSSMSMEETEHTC

A-375 = test: MITF: Counter assay: A375 proliferation Measured in Cell-Based System Using Plate Reader - 2084-03_Inhibitor_Dose_DryPowder_Activity. [Related pubchem assays (depositor defined):AID488944]; format: functional; conditions: Homo sapiens
[32] = biological target: Beta-2 adrenergic receptor (Homo sapiens, UniProt P07550); test: ADRB2 activation measured by internalization – cell-based, FAP fluorogen, flow cytometry, cherry pick 1, dose response (AID 588763); format: functional
Sequence of Beta-2 adrenergic receptor (P07550 whole entry): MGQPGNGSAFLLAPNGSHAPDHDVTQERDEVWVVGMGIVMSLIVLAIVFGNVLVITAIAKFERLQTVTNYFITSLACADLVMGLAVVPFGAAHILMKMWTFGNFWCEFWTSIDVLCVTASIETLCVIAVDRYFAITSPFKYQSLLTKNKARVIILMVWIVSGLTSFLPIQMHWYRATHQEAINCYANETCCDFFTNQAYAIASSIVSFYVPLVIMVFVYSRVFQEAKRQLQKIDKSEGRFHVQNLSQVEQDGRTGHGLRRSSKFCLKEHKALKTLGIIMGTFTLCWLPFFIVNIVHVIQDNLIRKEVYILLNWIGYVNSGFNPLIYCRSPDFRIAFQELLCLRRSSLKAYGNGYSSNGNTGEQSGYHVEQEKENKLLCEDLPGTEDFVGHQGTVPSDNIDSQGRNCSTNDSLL

Sequence of Beta-galactosidase (Q8VNN2 whole entry): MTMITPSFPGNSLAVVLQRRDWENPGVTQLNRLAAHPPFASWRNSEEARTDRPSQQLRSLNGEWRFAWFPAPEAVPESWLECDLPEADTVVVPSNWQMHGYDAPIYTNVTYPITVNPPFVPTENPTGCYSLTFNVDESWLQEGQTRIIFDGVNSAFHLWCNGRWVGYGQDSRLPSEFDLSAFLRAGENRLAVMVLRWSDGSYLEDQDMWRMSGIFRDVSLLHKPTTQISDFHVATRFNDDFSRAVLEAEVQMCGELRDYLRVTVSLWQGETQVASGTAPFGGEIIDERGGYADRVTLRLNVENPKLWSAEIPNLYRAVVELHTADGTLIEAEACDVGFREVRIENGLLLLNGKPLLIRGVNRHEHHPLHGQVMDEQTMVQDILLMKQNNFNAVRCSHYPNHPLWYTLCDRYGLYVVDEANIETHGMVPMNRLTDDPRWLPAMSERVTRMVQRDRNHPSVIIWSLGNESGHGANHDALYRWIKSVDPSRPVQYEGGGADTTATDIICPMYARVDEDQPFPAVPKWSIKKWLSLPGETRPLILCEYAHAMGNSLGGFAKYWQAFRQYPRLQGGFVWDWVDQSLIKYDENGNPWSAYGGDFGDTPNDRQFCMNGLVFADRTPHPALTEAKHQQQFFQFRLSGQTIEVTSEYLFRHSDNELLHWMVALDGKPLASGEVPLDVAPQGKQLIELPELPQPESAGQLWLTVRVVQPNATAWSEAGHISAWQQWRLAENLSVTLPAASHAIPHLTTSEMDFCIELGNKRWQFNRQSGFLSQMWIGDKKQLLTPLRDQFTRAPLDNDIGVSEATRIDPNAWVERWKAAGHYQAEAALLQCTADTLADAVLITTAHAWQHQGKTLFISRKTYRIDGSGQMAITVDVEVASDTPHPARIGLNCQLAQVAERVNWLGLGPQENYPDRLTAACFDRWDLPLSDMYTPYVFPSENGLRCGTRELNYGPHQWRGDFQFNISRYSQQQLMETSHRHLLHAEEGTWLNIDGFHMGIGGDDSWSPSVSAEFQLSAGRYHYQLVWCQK
Sequence of ATP-dependent molecular chaperone HSP82 (C4YTQ8 whole entry, the tested form may be a part): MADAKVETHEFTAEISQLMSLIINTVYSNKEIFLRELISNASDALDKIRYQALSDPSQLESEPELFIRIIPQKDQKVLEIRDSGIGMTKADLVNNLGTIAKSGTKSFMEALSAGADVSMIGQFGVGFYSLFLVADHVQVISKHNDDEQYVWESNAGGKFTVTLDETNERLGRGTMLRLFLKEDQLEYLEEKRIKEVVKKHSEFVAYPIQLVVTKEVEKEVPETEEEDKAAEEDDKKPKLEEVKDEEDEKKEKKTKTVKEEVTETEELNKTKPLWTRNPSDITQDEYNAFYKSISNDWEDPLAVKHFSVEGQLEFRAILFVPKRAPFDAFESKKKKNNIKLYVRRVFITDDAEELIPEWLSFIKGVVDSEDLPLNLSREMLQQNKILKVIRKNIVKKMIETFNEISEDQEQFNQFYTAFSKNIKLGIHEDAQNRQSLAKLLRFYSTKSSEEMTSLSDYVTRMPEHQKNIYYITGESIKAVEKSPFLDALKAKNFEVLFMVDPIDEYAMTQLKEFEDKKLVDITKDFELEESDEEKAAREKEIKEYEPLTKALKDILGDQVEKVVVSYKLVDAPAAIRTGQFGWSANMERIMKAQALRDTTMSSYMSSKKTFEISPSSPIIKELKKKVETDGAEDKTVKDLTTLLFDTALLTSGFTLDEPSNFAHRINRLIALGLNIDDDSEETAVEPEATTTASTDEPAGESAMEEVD
Sequence of Nucleotide-binding oligomerization domain-containing protein 2 (Q9HC29 whole entry, the tested form may be a part): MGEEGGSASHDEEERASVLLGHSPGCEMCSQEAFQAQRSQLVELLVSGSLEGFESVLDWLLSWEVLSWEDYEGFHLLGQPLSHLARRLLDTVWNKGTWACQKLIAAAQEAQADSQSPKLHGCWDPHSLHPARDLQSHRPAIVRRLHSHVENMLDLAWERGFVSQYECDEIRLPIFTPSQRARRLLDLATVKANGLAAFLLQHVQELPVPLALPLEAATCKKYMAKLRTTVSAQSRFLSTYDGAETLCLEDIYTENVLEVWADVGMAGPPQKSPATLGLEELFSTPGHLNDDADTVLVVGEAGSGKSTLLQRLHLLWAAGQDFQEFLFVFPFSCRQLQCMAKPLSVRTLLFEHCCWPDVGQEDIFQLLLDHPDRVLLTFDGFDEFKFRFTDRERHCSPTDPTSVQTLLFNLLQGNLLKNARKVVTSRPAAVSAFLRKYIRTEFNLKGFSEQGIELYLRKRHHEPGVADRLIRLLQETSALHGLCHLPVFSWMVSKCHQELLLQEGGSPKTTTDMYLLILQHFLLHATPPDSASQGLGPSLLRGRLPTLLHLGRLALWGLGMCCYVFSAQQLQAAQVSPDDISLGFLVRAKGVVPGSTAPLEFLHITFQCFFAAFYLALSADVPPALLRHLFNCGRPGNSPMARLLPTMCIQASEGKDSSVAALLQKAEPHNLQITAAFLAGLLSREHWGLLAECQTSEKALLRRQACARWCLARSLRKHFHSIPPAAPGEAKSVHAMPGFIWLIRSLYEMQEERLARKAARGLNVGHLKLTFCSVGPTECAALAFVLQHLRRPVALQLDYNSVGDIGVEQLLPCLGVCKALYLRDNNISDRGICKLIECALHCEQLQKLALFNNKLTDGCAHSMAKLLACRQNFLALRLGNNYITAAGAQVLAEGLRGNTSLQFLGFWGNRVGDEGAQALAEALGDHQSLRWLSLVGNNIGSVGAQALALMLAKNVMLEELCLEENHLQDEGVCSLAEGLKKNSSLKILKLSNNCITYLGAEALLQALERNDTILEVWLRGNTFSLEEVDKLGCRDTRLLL
Sequence of Protein Rev (P05866 whole entry): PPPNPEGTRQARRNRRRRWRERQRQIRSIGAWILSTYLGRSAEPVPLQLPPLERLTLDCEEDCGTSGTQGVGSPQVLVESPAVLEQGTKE

Question: Which EC50 (Beta-galactosidase) does the source give for O=C1N=C(NS(=O)(=O)Cc2ccccc2)S/C1=C/c1cc([N+](=O)[O-])ccc1O here?
Answer: > 40 µM (inactive)

Question: What about the IC50 [1] of the same molecule?
Answer: 39.9 µM (not active)

Question: With COc1ccc(/C=C/c2cc(-c3ccc(C)cc3)o[n+]2C)cc1 as the molecule, how does the EC50 [2] read?
Answer: > 160 µM (inactive)

Question: What about the EC50 [3] of the same molecule?
Answer: 0.894 µM (active)

Question: What about the EC50 (HEK293 [4]) of the same molecule?
Answer: 9.15 µM (active)

Question: What about the EC50 (BJ [5]) of the same molecule?
Answer: 0.601 µM (inconclusive)

Question: What about the IC50 (Protein Rev) of the same molecule?
Answer: > 79.4 µM (not active)

Question: And the IC50 (HEK293 [6])?
Answer: 5.25 µM (active)

Question: And the EC50 [7]?
Answer: 12.2 µM (active)

Question: And the EC50 [8]?
Answer: 2.27 µM (active)

Question: What about the EC50 (BJ [9]) of the same molecule?
Answer: 1.87 µM (inconclusive)

Question: And the EC50 [10]?
Answer: 0.576 µM (active)

Question: What about the IC50 (HEK293 [11]) of the same molecule?
Answer: 13.2 µM (active)

Question: What about the EC50 [12] of the same molecule?
Answer: 8.29 µM (active)

Question: What about the IC50 (HEK293 [13]) of the same molecule?
Answer: 8.34 µM (active)

Question: What about the IC50 (HEK293 [14]) of the same molecule?
Answer: > 20 µM (inactive)

Question: What about the EC50 [15] of the same molecule?
Answer: 0.778 µM (active)

Question: And the EC50 [16]?
Answer: > 180 µM (inactive)

Question: What about the EC50 [17] of the same molecule?
Answer: 0.733 µM (active)

Question: And the EC50 (BJ [18])?
Answer: 4.41 µM (inconclusive)

Question: And the EC50 [19]?
Answer: 5.02 µM (active)

Question: What about the CC50 [20] of the same molecule?
Answer: 2.38 µM (active)

Question: What about the CC50 [21] of the same molecule?
Answer: 9.8 µM (active)

Question: And the IC50 (Jurkat)?
Answer: 3.13 µM (active)

Question: And the CC50 [22]?
Answer: > 20 µM (active)

Question: And the IC50 [23]?
Answer: > 80 µM (inactive)

Question: What about the IC50 (cells) of the same molecule?
Answer: 5.99 µM (active)

Question: And the EC50 (BJ [24])?
Answer: 3.43 µM (active)

Question: What about the AC50 (INS1) of the same molecule?
Answer: 0.76 µM (active)

Question: What about the EC50 [25] of the same molecule?
Answer: > 160 µM (inactive)

Question: And the AC50 [26]?
Answer: 6.83 µM (active)

Question: And the AC50 [27]?
Answer: 4.21 µM (active)

Question: What about the AC50 [28] of the same molecule?
Answer: 3.33 µM (active)

Question: What about the AC50 [29] of the same molecule?
Answer: 7.88 µM (active)

Question: Which results are given for CC(C)c1ccc(NC(=O)c2snc3ccc(Cl)cc23)cc1?
Answer: AC50 [30]: 3.02 µM (active); AC50 (HeLa): 52.8 µM (active); AC50 (Escherichia coli): 23.1 µM (active)

Question: For CCC[N+](CC#Cc1ccccc1)(CCC)CC(=O)c1ccc(Cl)cc1, which EC50 (Beta-galactosidase) is on record?
Answer: > 40 µM (inactive)

Question: What about the IC50 [1] of the same molecule?
Answer: > 40 µM (not active)

Question: What does the source list for COc1ccccc1CNCC(O)Cn1c2ccccc2c2ccccc21 (stereo unspecified)?
Answer: EC50 [15]: 8.09 µM (active); EC50 [17]: 8.31 µM (active); AC50 [31]: 18.7 µM (active); AC50 (A-375): 19.2 µM (active); AC50 (INS1): 11.2 µM (active); EC50 [32]: 12.2 µM (inactive)

Question: Which AC50 (HeLa) does the source give for Brc1csc(/C=N/Nc2nc3ccccc3s2)c1 here?
Answer: 46 µM (active)
